In US20180201592A1, “2-AMINO-1,3,4-THIADIAZINE AND 2-AMINO-1,3,4-OXADIAZINE BASED ANTIFUNGAL AGENTS” (F2G Limited, priority 2015, published 2018):

Assays:
Conditions in all cases: banded MIC grade
[1] = tested on: A. flavus; assay: Minimum inhibitory concentration, RPMI medium; format: cell-based
Summary of the method: (§1)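 Thawed 5 mg/mL DMSO stocks are vortexed, diluted into sterile water and serially halved in water. The MIC test is then run in RPMI 1640 at 35° C for 24-48 hrs. Wells are read at OD 485 nm.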

[2] = tested on: A. terreus; assay: Minimum inhibitory concentration, RPMI medium; format: cell-based
Summary of the method: as §1

[3] = tested on: C. krusei; assay: Minimum inhibitory concentration, RPMI medium; format: cell-based
Summary of the method: as §1

[4] = tested on: A. terreus 49; assay: Minimum inhibitory concentration, RPMI medium; format: cell-based
Summary of the method: as §1

[5] = tested on: C. glabrata; assay: Minimum inhibitory concentration, RPMI medium; format: cell-based
Summary of the method: as §1

[6] = tested on: C. albicans; assay: Minimum inhibitory concentration, RPMI medium; format: cell-based
Summary of the method: as §1

[7] = tested on: C. parapsilosis; assay: Minimum inhibitory concentration, RPMI medium; format: cell-based
Summary of the method: as §1

[8] = tested on: C. tropicalis; assay: Minimum inhibitory concentration, RPMI medium; format: cell-based
Summary of the method: as §1

[9] = tested on: A. niger; assay: Minimum inhibitory concentration, RPMI medium; format: cell-based
Summary of the method: as §1

[10] = tested on: A. terreus 49; assay: Minimum inhibitory concentration, YAG medium; format: cell-based, Aspergillus terreus
Summary of the method: (§2)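 MIC values (mg/L) were derived from well optical density at 485 nm. Plates with Aspergillus spores and doubling aqueous dilutions of compound (5 mg/mL DMSO stock) had been incubated at 35° C for 24 hrs.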

[11] = tested on: Aspergillus niger; assay: Minimum inhibitory concentration, YAG medium; format: cell-based
Summary of the method: as §2

[12] = tested on: Aspergillus flavus; assay: Minimum inhibitory concentration, YAG medium; format: cell-based
Summary of the method: as §2

[13] = tested on: Aspergillus terreus; assay: Minimum inhibitory concentration, YAG medium; format: cell-based
Summary of the method: as §2

[14] = tested on: A. fumigatus; assay: Minimum inhibitory concentration, RPMI medium; format: cell-based
Protocol: (§3) Between 1 and 5 mgs of compound were accurately weighed out into a sterile Eppendorf tube. The compound was dissolved in DMSO to give a solution containing 5 mg/mL. Tubes were stored at −20° C. until required.
(§4) On the day of testing thawed solutions were vortex mixed to ensure homogeneity. 30 μL of solution was removed and added to 570 μL of sterile water in a separate sterile Eppendorf. The thoroughly mixed solution was used to prepare a series of doubling dilutions in water, in a deep well plate. Thirteen replicate plates were prepared using a Minitrak by aspirating 20 μL from each well into eleven clear polystyrene 96 well plates.
(§5) Assays were also performed in RPMI medium (Roswell Park Memorial Media 1640). To perform MIC tests in this medium, dilutions of compounds are prepared in microtitre plates as described above. Fungal strains to be tested are grown and harvested in an identical manner to that described above, and each organism suspension was diluted in RPMI medium, typically containing 2% glucose and 0.135 M MOPS buffer (pH 7.0) to 0.5-2×10^4cfu/mL, rather than in YAG medium. 80 μL of an organism suspension was added to each well of the plate containing drug dilutions.
(§6) This produced MIC plates with a drug range 50-0.05 mg/L and organism inocula of 1-2×10^4 cfu/mL. All plates were incubated for 24-48 hrs at 35° C. Growth was assessed by monitoring the optical density at 485 nm for each well. The MIC of a compound is the lowest drug concentration that inhibits growth of an organism by >80% compared with a drug free control. The following organisms were tested: C. albicans, C. parapsilosis, C. tropicalis, C. glabrata, C. krusei, A. niger, A. fumigatus, A. terreus, A. flavus, A. terreus 49, and A. fumigatus 210.

[15] = tested on: A. fumigatus 210; assay: Minimum inhibitory concentration, RPMI medium; format: cell-based
Protocol: as §3, §4, §5, §6

[16] = tested on: Aspergillus fumigatus; assay: Minimum inhibitory concentration, YAG medium; format: cell-based
Summary of the method: (§7)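 MICs (mg/L) reflect >70% inhibition of OD485 growth versus untreated control after 24 hrs at 35° C in YAG medium, spore inoculum 1-2×10^4 cfu/mL, drug range 50-0.05 mg/L.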

[17] = tested on: A. fumigatus 210; assay: Minimum inhibitory concentration, YAG medium; format: cell-based, Aspergillus fumigatus
Summary of the method: as §7

Structure (SMILES) | MIC grade, A. FLAVUS, RPMI media [1] | MIC grade, A. TERREUS, RPMI media [2] | MIC grade, C. KRUSEI, RPMI media [3] | MIC grade, A. TERREUS 49, RPMI media [4] | MIC grade, C. GLABRATA, RPMI media [5] | MIC grade, C. ALBICANS, RPMI media [6] | MIC grade, C. PARAPSILOSIS, RPMI media [7] | MIC grade, C. TROPICALIS, RPMI media [8] | MIC grade, A. NIGER, RPMI media [9] | MIC grade, A. TERREUS 49, YAG media [10] | MIC grade, A. NIGER, YAG media [11] | MIC grade, A. FLAVUS, YAG media [12] | MIC grade, A. TERREUS, YAG media [13] | MIC grade, A. FUMIGATUS, RPMI media [14] | MIC grade, A. FUMIGATUS 210, RPMI media [15] | MIC grade, A. FUMIGATUS, YAG media [16] | MIC grade, A. FUMIGATUS 210, YAG media [17]
NC1=NN=C(CCCCOCc2ccccc2C(F)(F)F)CS1 | 1 (1: ≥20 mg/L) | 1 (1: ≥20 mg/L) | 2 (2: 5-20 mg/L) | 1 (1: ≥20 mg/L) | 1 (1: ≥20 mg/L) | 2 (2: 5-20 mg/L) | 1 (1: ≥20 mg/L) | 2 (2: 5-20 mg/L) | 1 (1: ≥20 mg/L) | 2 (2: 1-5 mg/L) | 3 (3: 0.2-1 mg/L) | 2 (2: 1-5 mg/L) | 2 (2: 1-5 mg/L) | 1 (1: ≥20 mg/L) | 1 (1: ≥20 mg/L) | 3 (3: 0.2-1 mg/L) | 2 (2: 1-5 mg/L)
NC1=NN=C(CCCCOCc2c(F)cccc2Cl)CS1 | 2 (2: 5-20 mg/L) | 2 (2: 5-20 mg/L) | 3 (3: 1-5 mg/L) | 2 (2: 5-20 mg/L) | 2 (2: 5-20 mg/L) | 2 (2: 5-20 mg/L) | 2 (2: 5-20 mg/L) | 2 (2: 5-20 mg/L) | 2 (2: 5-20 mg/L) | 3 (3: 0.2-1 mg/L) | 3 (3: 0.2-1 mg/L) | 3 (3: 0.2-1 mg/L) | 3 (3: 0.2-1 mg/L) | 2 (2: 5-20 mg/L) | 1 (1: ≥20 mg/L) | 3 (3: 0.2-1 mg/L) | 3 (3: 0.2-1 mg/L)
NC1=NN=C(CCCCOCc2cc(F)ccc2F)CS1 | 2 (2: 5-20 mg/L) | 2 (2: 5-20 mg/L) | 3 (3: 1-5 mg/L) | 2 (2: 5-20 mg/L) | 2 (2: 5-20 mg/L) | 3 (3: 1-5 mg/L) | 3 (3: 1-5 mg/L) | 3 (3: 1-5 mg/L) | 2 (2: 5-20 mg/L) | 4 (4: <0.2 mg/L) | 4 (4: <0.2 mg/L) | 4 (4: <0.2 mg/L) | 4 (4: <0.2 mg/L) | 2 (2: 5-20 mg/L) | 2 (2: 5-20 mg/L) | 4 (4: <0.2 mg/L) | 4 (4: <0.2 mg/L)
